Literature values as cited in US5089474A, “Novel microproteins” (Roussel Uclaf, priority 1989, dated 1992).

System: trypsin
Conditions: statement in words on the known EETI II; cited from earlier work

Substance: EETI II
- property of inhibiting trypsin: inhibiting trypsin
